Results from patent publication US11572369B2, “Bicyclic pyridine compositions and methods of using the same for cancer therapy” (UNIVERSITY OF SOUTH CAROLINA, priority 2019, dated 2023).

Columns and labels:
Assay in all cases: KINOMEscan
Assay type in all cases: binding
Conditions in all cases: 2000 nM
[1] = biological target: T1, DMPK2 (Homo sapiens, UniProt Q6DT37)
T1 construct: DNA label (qPCR read-out); purchased KINOMEscan (DiscoveRx) panel

[2] = biological target: T2, MLK3 (Homo sapiens, UniProt Q16584)
T2 construct: DNA label (qPCR read-out); purchased KINOMEscan scanMAX panel (DiscoveRx)

[3] = biological target: T3, MST1 (Homo sapiens, UniProt Q13043)
T3 construct: DNA label (qPCR read-out); purchased KINOMEscan scanMAX panel (DiscoveRx)

[4] = biological target: T4, PRKR (Homo sapiens, UniProt P19525)
T4 construct: purchased DiscoveRx (KINOMEscan scanMAX panel)

[5] = biological target: T5, ANKK1 (Homo sapiens, UniProt Q8NFD2)
T5 construct: DNA label (qPCR read-out); purchased KINOMEscan scanMAX panel (DiscoveRx)

[6] = biological target: T6, CDK4-cyclinD1 (Homo sapiens, UniProt P11802)
T6 construct: purchased DiscoverX (KINOMEscan service)

[7] = biological target: T7, STK16 (Homo sapiens, UniProt O75716)
T7 construct: DNA label (for qPCR read-out); purchased DiscoveRx (KINOMEscan scanMAX panel, contract assay)

[8] = biological target: MAP3K4 (Homo sapiens, UniProt Q9Y6R4)
[9] = biological target: T8, MEK1 (Homo sapiens, UniProt Q02750)
T8 construct: purchased DiscoveRx (KINOMEscan scanMAX panel, service)

[10] = biological target: T9, SBK1 (Homo sapiens, UniProt Q52WX2)
T9 construct: purchased DiscoveRx (KINOMEscan scanMAX panel)

[11] = biological target: T10, BRSK1 (Homo sapiens, UniProt Q8TDC3)
T10 construct: DNA label (for qPCR read-out); purchased KINOMEscan scanMAX panel (DiscoveRx)

[12] = biological target: T11, KIT(A829P) (Homo sapiens, UniProt P10721, A829P)
T11 construct: DNA label (for qPCR read-out); purchased DiscoveRx (KINOMEscan scanMAX panel)

[13] = biological target: T12, RSK1(Kin.Dom.1-N-terminal) (Homo sapiens, UniProt Q15418)
T12 construct: RSK1(Kin.Dom.1); purchased DiscoveRx (KINOMEscan scanMAX panel)

[14] = biological target: T13, HIPK1 (Homo sapiens, UniProt Q86Z02)
T13 construct: DNA label (for qPCR read-out); purchased DiscoveRx (KINOMEscan scanMAX panel, contract assay)

[15] = biological target: T14, CSNK2A2 (Homo sapiens, UniProt P19784)
T14 construct: DNA label; purchased DiscoveRx (KINOMEscan scanMAX panel)

[16] = biological target: T15, JNK1 (Homo sapiens, UniProt P45983)
T15 construct: DNA label (for qPCR read-out); purchased DiscoveRx (KINOMEscan scanMAX panel)

[17] = biological target: T16, NEK11 (Homo sapiens, UniProt Q8NG66)
T16 construct: DNA label (qPCR read-out); purchased KINOMEscan (ScanMAX panel service)

[18] = biological target: T17, FLT3(R834Q) (Homo sapiens, UniProt P36888, R834Q)
T17 construct: purchased KINOMEscan (DiscoveRx)

[19] = biological target: T18, PRP4 (Homo sapiens, UniProt Q13523)
T18 construct: purchased DiscoveRx (KINOMEscan scanMAX panel)
Text: (§1) Nat. Biotechnol. 23, 329-336 (2005).
(§2) Percent Control (% Ctrl).

[20] = biological target: T19, PFPK5(P.falciparum) (Plasmodium falciparum, UniProt P61075)
T19 construct: DNA label (for qPCR read-out); purchased DiscoveRx (KINOMEscan scanMAX service)
Text: as §1, §2

[21] = system: FLT3 (ITD)
Text: as §1, §2

[22] = system: FLT3(ITD, F691L)
Text: as §1, §2

[23] = biological target: T20, PFCDPK1(P.falciparum) (Plasmodium falciparum, UniProt P62344)
T20 construct: DNA label (for qPCR read-out); purchased DiscoveRx (KINOMEscan scanMAX service)
Text: as §1, §2

[24] = system: FLT3(ITD, D835V)
Text: as §1, §2

[25] = biological target: T21, CDC2L5 (Homo sapiens, UniProt Q14004)
T21 construct: purchased DiscoverX (KINOMEscan service)
Text: as §1, §2

[26] = biological target: T22, MYLK2 (Homo sapiens, UniProt Q9H1R3)
T22 construct: DNA label (for qPCR read-out); purchased KINOMEscan scanMAX panel (DiscoveRx)

[27] = biological target: T23, RIOK2 (Homo sapiens, UniProt Q9BVS4)
T23 construct: DNA label (qPCR read-out); purchased DiscoverX (assay service)

[28] = biological target: T24, KIT (Homo sapiens, UniProt P10721)
T24 construct: DNA label (for qPCR read-out); purchased DiscoveRx (KINOMEscan scanMAX panel)

[29] = biological target: T25, KIT(L576P) (Homo sapiens, UniProt P10721, L576P)
T25 construct: DNA label (for qPCR read-out); purchased DiscoveRx (KINOMEscan scanMAX panel)

[30] = biological target: T26, YES (Homo sapiens, UniProt P07947)
T26 construct: purchased KINOMEscan (DiscoveRx) panel service

[31] = biological target: T27, NLK (Homo sapiens, UniProt Q9UBE8)
T27 construct: DNA label (qPCR read-out); purchased KINOMEscan (ScanMAX panel service)

[32] = biological target: T28, PRKD3 (Homo sapiens, UniProt O94806)
T28 construct: purchased DiscoveRx (KINOMEscan scanMAX panel)

[33] = biological target: T29, YSK1 (Homo sapiens, UniProt O00506)
T29 construct: purchased KINOMEscan (DiscoveRx) panel service

[34] = biological target: T30, STK36 (Homo sapiens, UniProt Q9NRP7)
T30 construct: DNA label (for qPCR read-out); purchased DiscoveRx (KINOMEscan scanMAX panel, contract assay)

[35] = biological target: T31, CLK4 (Homo sapiens, UniProt Q9HAZ1)
T31 construct: DNA label (for qPCR read-out); purchased DiscoveRx (KINOMEscan scanMAX service)

[36] = biological target: T32, CAMK1G (Homo sapiens, UniProt Q96NX5)
T32 construct: DNA label (qPCR read-out); purchased KINOMEscan (ScanMAX panel service)
T32 sequence (Q96NX5 whole entry): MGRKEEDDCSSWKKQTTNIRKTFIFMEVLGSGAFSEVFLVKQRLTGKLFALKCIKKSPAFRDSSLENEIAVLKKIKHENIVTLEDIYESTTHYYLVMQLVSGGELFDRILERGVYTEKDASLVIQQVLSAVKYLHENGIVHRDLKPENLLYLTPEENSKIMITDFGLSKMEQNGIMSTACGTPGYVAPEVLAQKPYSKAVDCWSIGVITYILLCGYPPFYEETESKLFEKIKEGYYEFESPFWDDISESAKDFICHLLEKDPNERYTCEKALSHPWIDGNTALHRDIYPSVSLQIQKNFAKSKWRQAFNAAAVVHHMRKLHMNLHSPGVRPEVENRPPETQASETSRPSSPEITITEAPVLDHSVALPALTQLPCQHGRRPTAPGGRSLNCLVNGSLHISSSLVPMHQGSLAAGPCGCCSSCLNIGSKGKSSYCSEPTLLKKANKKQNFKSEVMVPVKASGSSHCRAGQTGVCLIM

T20 sequence (P62344 whole entry): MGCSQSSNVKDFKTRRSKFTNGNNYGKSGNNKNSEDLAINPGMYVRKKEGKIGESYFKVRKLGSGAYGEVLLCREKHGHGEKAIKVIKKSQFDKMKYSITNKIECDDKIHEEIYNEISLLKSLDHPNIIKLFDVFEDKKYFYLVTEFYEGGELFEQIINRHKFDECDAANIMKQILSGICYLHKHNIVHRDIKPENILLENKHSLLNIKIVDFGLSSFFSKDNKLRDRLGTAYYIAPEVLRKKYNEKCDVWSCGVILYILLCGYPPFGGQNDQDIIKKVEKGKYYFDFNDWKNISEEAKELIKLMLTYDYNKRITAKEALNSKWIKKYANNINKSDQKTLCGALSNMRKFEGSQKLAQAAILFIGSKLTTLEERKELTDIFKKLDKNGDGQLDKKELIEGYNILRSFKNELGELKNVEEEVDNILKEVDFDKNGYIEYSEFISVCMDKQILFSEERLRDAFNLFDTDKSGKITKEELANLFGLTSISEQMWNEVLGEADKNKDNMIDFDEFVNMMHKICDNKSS
MAP3K4, sequence (Q9Y6R4 whole entry): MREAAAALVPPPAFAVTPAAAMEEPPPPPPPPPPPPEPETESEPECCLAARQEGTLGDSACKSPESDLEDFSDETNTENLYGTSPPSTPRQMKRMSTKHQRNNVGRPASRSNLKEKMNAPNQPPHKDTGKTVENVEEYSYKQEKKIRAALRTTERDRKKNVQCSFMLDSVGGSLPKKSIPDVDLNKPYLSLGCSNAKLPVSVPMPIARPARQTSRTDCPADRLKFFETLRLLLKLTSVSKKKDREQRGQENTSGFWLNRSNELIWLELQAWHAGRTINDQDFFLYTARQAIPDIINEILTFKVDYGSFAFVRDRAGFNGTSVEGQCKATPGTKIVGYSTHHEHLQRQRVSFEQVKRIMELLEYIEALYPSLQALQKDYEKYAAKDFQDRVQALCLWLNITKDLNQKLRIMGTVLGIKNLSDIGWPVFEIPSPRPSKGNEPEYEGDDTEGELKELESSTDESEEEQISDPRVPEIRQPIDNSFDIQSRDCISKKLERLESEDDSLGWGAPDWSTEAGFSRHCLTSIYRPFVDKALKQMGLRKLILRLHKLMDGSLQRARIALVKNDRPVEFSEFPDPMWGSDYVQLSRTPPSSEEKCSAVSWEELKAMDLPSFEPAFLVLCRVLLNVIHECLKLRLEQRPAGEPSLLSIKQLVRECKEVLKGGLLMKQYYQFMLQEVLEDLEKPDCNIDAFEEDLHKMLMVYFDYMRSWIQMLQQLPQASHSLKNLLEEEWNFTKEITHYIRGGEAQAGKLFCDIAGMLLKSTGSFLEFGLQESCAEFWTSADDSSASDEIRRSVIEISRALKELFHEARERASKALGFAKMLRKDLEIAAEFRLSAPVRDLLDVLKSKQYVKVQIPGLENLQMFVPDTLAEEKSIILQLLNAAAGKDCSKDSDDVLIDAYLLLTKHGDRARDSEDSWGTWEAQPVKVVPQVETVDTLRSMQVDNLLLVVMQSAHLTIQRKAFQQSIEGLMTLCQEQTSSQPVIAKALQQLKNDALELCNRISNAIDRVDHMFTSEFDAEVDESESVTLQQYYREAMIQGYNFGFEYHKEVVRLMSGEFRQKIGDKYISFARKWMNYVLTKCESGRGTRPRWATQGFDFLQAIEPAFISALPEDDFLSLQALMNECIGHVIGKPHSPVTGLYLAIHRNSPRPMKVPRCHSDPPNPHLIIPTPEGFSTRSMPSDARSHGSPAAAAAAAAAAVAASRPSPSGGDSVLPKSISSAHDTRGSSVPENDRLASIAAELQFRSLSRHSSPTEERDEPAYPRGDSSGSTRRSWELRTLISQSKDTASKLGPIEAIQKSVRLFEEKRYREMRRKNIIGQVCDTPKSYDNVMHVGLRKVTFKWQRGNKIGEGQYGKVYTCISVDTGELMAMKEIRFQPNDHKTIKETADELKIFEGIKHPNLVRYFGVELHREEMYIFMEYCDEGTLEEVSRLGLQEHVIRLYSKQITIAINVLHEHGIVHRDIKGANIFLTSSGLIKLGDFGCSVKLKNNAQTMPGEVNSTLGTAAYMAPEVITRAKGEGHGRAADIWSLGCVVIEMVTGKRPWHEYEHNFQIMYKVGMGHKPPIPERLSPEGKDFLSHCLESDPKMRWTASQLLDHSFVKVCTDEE
T26 sequence (P07947 whole entry): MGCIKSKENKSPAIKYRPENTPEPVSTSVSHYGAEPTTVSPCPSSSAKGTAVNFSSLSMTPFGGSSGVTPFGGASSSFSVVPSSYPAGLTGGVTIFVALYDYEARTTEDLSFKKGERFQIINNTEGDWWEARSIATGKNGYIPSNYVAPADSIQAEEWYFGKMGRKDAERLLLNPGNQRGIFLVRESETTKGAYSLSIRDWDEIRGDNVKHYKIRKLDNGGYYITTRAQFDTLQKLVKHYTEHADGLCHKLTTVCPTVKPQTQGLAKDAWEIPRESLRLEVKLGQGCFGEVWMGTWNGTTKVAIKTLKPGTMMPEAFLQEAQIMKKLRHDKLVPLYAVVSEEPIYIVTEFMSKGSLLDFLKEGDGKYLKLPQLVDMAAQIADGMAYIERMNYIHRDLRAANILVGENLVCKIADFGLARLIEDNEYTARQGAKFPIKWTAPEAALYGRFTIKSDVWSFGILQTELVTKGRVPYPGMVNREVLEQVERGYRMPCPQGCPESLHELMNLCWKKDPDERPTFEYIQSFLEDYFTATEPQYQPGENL
T11 sequence (P10721 26-976 A829P): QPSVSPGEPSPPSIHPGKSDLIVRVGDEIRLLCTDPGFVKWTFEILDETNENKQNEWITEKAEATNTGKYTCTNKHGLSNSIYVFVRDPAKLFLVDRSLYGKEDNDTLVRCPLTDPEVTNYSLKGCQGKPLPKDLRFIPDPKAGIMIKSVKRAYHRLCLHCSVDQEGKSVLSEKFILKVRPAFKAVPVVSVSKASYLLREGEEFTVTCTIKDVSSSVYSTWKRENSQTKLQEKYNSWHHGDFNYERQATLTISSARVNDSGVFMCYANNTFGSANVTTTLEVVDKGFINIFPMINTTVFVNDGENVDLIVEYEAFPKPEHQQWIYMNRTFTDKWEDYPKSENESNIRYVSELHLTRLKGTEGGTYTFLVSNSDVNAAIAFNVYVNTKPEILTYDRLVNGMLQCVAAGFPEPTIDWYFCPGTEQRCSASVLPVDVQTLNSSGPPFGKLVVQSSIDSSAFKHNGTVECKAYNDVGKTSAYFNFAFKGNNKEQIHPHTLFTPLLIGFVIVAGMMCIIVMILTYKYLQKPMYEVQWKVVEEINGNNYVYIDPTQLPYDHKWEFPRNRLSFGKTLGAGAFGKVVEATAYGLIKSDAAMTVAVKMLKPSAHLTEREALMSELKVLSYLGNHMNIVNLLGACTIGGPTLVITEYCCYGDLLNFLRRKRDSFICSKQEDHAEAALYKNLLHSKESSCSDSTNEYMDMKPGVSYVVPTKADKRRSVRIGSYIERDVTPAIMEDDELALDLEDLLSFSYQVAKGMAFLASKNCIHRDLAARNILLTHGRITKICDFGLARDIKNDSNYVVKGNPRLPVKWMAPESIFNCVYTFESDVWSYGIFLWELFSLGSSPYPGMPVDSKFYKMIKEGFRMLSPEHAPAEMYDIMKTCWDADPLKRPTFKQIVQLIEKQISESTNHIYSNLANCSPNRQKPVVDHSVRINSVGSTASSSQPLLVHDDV
T16 sequence (Q8NG66 whole entry): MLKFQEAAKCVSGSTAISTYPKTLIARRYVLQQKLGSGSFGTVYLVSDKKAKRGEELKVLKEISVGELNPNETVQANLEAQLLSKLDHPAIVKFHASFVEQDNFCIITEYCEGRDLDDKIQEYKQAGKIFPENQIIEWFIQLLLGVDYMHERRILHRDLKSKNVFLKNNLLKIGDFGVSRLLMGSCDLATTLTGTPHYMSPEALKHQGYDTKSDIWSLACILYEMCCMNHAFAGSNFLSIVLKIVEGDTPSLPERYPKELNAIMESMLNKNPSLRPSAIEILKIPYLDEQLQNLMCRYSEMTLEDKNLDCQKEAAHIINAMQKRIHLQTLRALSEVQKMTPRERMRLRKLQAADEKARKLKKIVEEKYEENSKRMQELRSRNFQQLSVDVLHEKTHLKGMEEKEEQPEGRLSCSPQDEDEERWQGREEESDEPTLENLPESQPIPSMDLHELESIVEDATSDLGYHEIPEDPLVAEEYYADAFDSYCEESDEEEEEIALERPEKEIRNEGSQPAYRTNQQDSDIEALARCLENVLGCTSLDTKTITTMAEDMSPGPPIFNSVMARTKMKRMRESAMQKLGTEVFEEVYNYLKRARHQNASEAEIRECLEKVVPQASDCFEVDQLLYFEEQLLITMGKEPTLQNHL
T7 sequence (O75716 whole entry): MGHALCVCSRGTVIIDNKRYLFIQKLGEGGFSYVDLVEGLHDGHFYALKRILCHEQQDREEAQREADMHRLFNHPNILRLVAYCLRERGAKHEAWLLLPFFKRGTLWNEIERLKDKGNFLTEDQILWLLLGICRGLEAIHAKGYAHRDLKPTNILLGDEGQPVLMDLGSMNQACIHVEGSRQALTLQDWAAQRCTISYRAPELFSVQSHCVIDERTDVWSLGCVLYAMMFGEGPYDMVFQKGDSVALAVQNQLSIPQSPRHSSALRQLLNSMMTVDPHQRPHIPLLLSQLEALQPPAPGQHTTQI

SMILES	% Ctrl [1] [% Ctrl]	% Ctrl [2] [% Ctrl]	% Ctrl [3] [% Ctrl]	% Ctrl [4] [% Ctrl]	% Ctrl [5] [% Ctrl]	% Ctrl [6] [% Ctrl]	% Ctrl [7] [% Ctrl]	% Ctrl [8] [% Ctrl]	% Ctrl [9] [% Ctrl]	% Ctrl [10] [% Ctrl]	% Ctrl [11] [% Ctrl]	% Ctrl [12] [% Ctrl]	% Ctrl [13] [% Ctrl]	% Ctrl [14] [% Ctrl]	% Ctrl [15] [% Ctrl]	% Ctrl [16] [% Ctrl]	% Ctrl [17] [% Ctrl]	% Ctrl [18] [% Ctrl]	% Ctrl [19] [% Ctrl]	% Ctrl [20] [% Ctrl]	also measured
CN(C)C(=O)c1ccc(N2CCCN(c3ccnc4sc(C(N)=O)c(N)c34)CC2)cc1 [15u, 3-amino-4-(4-(4-(dimethylcarbamoyl)phenyl)-1,4-diazepan-1-yl)thieno[2,3-b]pyridine-2-carboxamide]	93	99	100	100	100	94	80	90	93	100	86	97	98	86	92	68	90	100	100	68	% Ctrl [21]: 82 % Ctrl; % Ctrl [22]: 95 % Ctrl; % Ctrl [23]: 94 % Ctrl; % Ctrl [24]: 41 % Ctrl; % Ctrl [25]: 71 % Ctrl; % Ctrl [26]: 100 % Ctrl; % Ctrl [27]: 35 % Ctrl; % Ctrl [28]: 95 % Ctrl; % Ctrl [29]: 96 % Ctrl; % Ctrl [30]: 99 % Ctrl; % Ctrl [31]: 98 % Ctrl; % Ctrl [32]: 94 % Ctrl; % Ctrl [33]: 76 % Ctrl; % Ctrl [34]: 100 % Ctrl; % Ctrl [35]: 59 % Ctrl; % Ctrl [36]: 99 % Ctrl
[2H]C([2H])([2H])N(C(=O)c1ccc(N2CCCN(c3ccnc4sc(C(N)=O)c(N)c34)CC2)cc1)C([2H])([2H])[2H] [15u_D6, 3-amino-4-(4-(4-(bis(methyl-d3)carbamoyl)phenyl)-1,4-diazepan-1-yl)thieno[2,3-b]pyridine-2-carboxamide]	94	100	98	100	91	96	87	100	83	83	97	51	96	71	100	30	86	68	88	67	% Ctrl [21]: 72 % Ctrl; % Ctrl [22]: 75 % Ctrl; % Ctrl [23]: 61 % Ctrl; % Ctrl [24]: 34 % Ctrl; % Ctrl [25]: 80 % Ctrl; % Ctrl [26]: 100 % Ctrl; % Ctrl [27]: 3.9 % Ctrl; % Ctrl [28]: 95 % Ctrl; % Ctrl [29]: 75 % Ctrl; % Ctrl [30]: 100 % Ctrl; % Ctrl [31]: 98 % Ctrl; % Ctrl [32]: 100 % Ctrl; % Ctrl [33]: 98 % Ctrl; % Ctrl [34]: 100 % Ctrl; % Ctrl [35]: 66 % Ctrl; % Ctrl [36]: 99 % Ctrl
